Data: ChEMBL document CHEMBL1158947, “Novel Bishomoscalarane Sesterterpenes from the Sponge Phyllospongia foliascens” (J Nat Prod, 1991)
In brackets after ≈: the same amount, converted by molar mass. Activity calls are given as the source filed them. No cut-off for these calls is given here.

Tested on: P388
Assay: Cytotoxicity against mouse P388 cells
Format: functional, cell-based

SMILES | Activity | IC50
CC[C@@]1(C)CCC[C@]2(C)[C@H]3C[C@H](O)[C@]4(C)C5=C(CC[C@H]4[C@]3(C)CC[C@@H]12)[C@H](C)OC5=O | inactive | 
CC[C@@]1(C)CCC[C@]2(C)[C@H]3CC(=O)[C@]4(C)[C@H]5C(=O)O[C@@H](C)[C@@H]5[C@@H](O)C[C@H]4[C@]3(C)CC[C@@H]12 | inactive | 
CC[C@@]1(C)CCC[C@]2(C)[C@H]3C[C@H](O)[C@]4(C)[C@H]5C=CC(=O)C5=CC[C@H]4[C@]3(C)CC[C@@H]12 [PHYLLOFENONE B] |  | 5 µg/mL (≈ 12.6 µM)
